Measured values taken from BindingDB's records for patent WO2023019327 (Mindset Pharma, 2023).
pEC50: −log10 of the molar value.

molecular target: 5-hydroxytryptamine receptor 2A (Homo sapiens, UniProt P28223); test: FLIPR Calcium 6 Assay
Protocol: The dye is diluted with assay buffer (20mM HEPES in 1x HBSS, PH7.4); Probenecid was added to the final concentration of 5 mM; […]. Vortexed vigorously for 1-2 minutes. Medium is removed from cell plate by flicking the cell plate on towel papers. […] The cell plate is placed on plate shaker, the plate was agitated at 600rpm for 2 minutes. The plate is incubated at 37°C for 2 hours followed by additional 15-minute incubation at 25°C. 3*compound in assay buffer is prepared: a. Reference compounds are diluted to required concentration with DMSO. The compounds were added to a 384-well compound plate; b. Serial dilutions are performed; c. […] Add […] assay buffer to the compound plate; f.

Sequence of 5-hydroxytryptamine receptor 2A (P28223 whole entry): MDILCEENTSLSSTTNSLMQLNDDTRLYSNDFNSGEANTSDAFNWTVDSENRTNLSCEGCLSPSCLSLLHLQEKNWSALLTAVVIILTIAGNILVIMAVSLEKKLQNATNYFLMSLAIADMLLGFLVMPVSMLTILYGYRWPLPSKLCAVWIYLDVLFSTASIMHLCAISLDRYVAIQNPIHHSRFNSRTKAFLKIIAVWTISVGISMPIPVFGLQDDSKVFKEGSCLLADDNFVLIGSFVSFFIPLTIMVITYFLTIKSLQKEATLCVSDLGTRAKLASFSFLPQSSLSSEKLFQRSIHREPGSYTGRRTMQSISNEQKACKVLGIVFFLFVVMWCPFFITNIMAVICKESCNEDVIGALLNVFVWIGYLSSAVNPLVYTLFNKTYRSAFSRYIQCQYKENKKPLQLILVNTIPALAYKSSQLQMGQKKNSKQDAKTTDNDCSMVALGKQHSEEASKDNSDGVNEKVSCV

| SMILES | pEC50 |
| --- | --- |
| CN(C)CCc1c[nH]c2ccccc12 [2-(1H-indol-3-yl)-N,N-dimethylethanamine] | > 5.00 |
| CCCCC/C=C\C/C=C\CCCCCCCC(=O)N(C)CCc1c[nH]c2ccccc12 [WO2023019367, Compound I-1] | < 4.52 |
| CCCCC/C=C\C/C=C\CCCCCCCC(=O)N(C)CCc1c[nH]c2ccc(OC)cc12 [WO2023019367, Compound I-21] | < 4.52 |
| CCCCC/C=C\C/C=C\CCCCCCCC(=O)N1CCCC1Cc1c[nH]c2ccccc12 (centres undefined) [WO2023019367, Compound I-46] | < 4.52 |
| CCCCC/C=C\C/C=C\CCCCCCCC(=O)N1CCCC1Cc1c[nH]c2ccc(OC)cc12 (centres undefined) [WO2023019367, Compound I-55] | < 4.52 |
| CCCCC/C=C\C/C=C\CCCCCCCC(=O)N1CCC(c2c[nH]c3ccc(OC)cc23)C1 (centres undefined) [WO2023019367, Compound I-81] | < 4.52 |
| CCCCC/C=C\C/C=C\CCCCCCCC(=O)N1CCC(c2c[nH]c3ccccc23)C1 (centres undefined) [WO2023019367, Compound I-84] | < 4.52 |
| CCCCC/C=C\C/C=C\CCCCCCCC(=O)N1CCC(c2c[nH]c3ccccc23)CC1 [WO2023019367, Compound I-87] | < 4.52 |
| CCCCC/C=C\C/C=C\CCCCCCCC(=O)N1CCC(c2c[nH]c3ccc(OC)cc23)CC1 [WO2023019367, Compound I-88] | < 4.52 |
